Results published in ChEMBL document CHEMBL1201862, “PubChem BioAssay data set” (2004).
Activity calls are given as the source filed them. Cut-off read from the data, not from the text of the source: actives have a measured IC50 and inactives only a lower limit.

Experiments:
Assay type in all cases: functional
[1] = target: T1, Sentrin-specific protease 8 (Homo sapiens, UniProt Q96LD8);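 note: luminescence read-out of SENP8 inhibition, dose-response confirmation following an ultra-high-throughput screen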
T1 sequence (Q96LD8 whole entry): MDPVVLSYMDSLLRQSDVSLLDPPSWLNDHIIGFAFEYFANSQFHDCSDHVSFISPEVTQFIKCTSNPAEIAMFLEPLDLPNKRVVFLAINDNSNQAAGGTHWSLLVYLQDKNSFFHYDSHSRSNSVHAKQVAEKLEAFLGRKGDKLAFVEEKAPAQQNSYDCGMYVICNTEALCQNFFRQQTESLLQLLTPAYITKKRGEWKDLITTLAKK

Caspase-3 = target: T2, Caspase-3 (Homo sapiens, UniProt P42574);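 note: Dose-response selectivity test against caspase-3 for candidate inhibitors of sentrin-specific proteases (SENPs)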
T2 sequence (P42574 whole entry): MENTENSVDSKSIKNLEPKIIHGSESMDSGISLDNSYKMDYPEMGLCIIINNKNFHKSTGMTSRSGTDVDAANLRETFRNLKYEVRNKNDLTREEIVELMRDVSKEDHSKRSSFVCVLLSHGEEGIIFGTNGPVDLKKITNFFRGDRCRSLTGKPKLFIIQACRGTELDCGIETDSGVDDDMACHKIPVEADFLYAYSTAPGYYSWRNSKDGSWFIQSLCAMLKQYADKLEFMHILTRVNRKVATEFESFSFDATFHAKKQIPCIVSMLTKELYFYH

[2] = target: T3, Sentrin-specific protease 7 (Homo sapiens, UniProt Q9BQF6);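 note: Luminescence-based dose-response confirmation of ultra-high-throughput screening hits, measuring inhibition of SENP7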
T3 sequence (Q9BQF6 whole entry): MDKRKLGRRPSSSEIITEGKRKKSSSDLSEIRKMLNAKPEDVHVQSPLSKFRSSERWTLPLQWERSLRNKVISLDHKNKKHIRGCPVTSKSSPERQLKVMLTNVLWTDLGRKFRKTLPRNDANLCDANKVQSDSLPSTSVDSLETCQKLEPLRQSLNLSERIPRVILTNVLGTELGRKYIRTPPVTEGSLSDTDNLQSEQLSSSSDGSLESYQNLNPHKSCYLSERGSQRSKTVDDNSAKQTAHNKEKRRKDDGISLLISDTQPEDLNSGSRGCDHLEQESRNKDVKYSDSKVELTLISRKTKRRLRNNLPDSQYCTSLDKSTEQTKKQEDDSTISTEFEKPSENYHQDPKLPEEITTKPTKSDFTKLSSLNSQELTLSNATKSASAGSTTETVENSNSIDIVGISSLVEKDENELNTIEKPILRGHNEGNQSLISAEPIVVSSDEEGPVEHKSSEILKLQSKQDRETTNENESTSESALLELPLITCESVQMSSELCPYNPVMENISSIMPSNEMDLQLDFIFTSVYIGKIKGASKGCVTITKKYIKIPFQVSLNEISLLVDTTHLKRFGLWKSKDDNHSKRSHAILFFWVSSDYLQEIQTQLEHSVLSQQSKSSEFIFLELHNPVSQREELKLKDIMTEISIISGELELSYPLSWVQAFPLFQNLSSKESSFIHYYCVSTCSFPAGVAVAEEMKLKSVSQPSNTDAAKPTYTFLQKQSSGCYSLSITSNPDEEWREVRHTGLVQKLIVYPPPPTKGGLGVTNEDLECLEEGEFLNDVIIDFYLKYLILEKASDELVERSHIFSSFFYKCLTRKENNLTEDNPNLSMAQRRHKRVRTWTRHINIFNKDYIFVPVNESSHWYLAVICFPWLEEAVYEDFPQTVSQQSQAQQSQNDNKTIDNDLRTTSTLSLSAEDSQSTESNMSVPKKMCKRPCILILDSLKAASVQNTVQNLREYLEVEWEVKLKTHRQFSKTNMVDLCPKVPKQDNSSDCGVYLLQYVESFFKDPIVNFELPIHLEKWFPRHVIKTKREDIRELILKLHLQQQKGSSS

[3] = target: T4, Sentrin-specific protease 6 (Homo sapiens, UniProt Q9GZR1);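 note: Luminescence-based dose-response confirmatory assay of SENP6 inhibition, following up an ultra-high-throughput screen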
T4 sequence (Q9GZR1 whole entry): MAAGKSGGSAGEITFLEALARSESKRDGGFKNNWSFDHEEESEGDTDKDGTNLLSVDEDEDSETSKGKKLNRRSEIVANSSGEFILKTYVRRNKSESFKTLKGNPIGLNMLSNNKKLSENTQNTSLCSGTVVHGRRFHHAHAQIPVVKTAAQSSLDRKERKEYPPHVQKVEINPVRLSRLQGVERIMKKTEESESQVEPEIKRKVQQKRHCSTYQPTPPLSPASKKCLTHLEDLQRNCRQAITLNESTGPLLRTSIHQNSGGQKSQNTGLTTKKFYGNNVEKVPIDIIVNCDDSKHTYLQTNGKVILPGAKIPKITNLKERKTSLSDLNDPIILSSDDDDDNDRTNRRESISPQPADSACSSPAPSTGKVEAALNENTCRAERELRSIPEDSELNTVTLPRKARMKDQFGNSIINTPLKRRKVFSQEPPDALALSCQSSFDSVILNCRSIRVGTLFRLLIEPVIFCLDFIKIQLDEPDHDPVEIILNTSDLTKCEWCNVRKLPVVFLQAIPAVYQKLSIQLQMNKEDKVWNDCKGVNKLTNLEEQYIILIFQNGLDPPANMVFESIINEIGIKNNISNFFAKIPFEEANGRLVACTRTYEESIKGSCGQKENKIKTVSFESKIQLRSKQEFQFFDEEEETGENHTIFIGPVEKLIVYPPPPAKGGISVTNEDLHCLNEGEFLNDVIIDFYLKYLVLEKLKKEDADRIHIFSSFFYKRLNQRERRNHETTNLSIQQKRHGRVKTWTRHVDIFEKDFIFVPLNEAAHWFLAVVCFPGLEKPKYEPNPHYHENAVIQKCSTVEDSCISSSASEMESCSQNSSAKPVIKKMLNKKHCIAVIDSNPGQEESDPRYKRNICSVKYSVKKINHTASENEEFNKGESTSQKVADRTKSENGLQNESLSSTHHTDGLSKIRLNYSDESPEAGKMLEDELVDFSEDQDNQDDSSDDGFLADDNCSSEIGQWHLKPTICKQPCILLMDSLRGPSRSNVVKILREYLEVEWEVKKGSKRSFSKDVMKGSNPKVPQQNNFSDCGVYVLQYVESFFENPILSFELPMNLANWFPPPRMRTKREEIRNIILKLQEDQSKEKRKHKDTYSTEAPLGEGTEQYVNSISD

Measured: IC50

CC(C)N(C(=O)Nc1ccc2nsnc2c1)C(C)C
active: [1] 2.41 µM | Caspase-3 5.81 µM | [2] 3.49 µM | [3] 2.39 µM

CC(C)n1cnc2c(NCc3ccccc3)cc(OCC3CCN(C)CC3)cc21
active: [1] 4.97 µM | Caspase-3 7.82 µM | [2] 5.65 µM | [3] 3.95 µM

NS(=O)(=O)c1ccc(NC2=CC(=O)C(=O)c3ccccc32)cc1
active: [1] 4.96 µM | Caspase-3 9.75 µM | [2] 7.93 µM | [3] 2.89 µM
